In patent US20190127797A1, “BIOMARKERS FOR THE DIAGNOSIS OF INFLAMMATION-RELATED DISEASES” (UNIVERSITE DE BORDEAUX, priority 2016, published 2019):

Legend:
Assay type in all cases: cell-based, human
[1] = system: NLRP3; experiment: NLRP3 expression by qPCR in primary monocytes; conditions: 100 μM, 6 hours, GAPDH-standardized, ratio relative to control
Description: (§1) FIG. 3. High levels of oxidative stress and increased nucleotide metabolites in IMH individuals can induce cytokine production and expression of inflammasome genes in primary monocytes. Broad-coverage metabolomics profiling was conducted on available serum samples from year 2011 (9 IML and 11 IMH individuals). […] Functional annotation and pathway analysis was conducted using MetPA. A significant enrichment for several metabolic pathways was identified for these metabolites (P<0.05) (a). Conversion of cysteine to cystine; and from arachidonic acid to 8-isoprostane, in the presence of ROS (b). Increased circulating levels of cystine and 8-isoprostane in IMH (b and c) indicate higher levels of oxidative stress (c and d). Adenine, DL-4-hydroxy-3-methoxymandelic acid (vanillylmandelate) (MMA), scyllo-inositol and N4-acetylcytidine (N4A) were selected based on their levels of significance (Q<0.001, see Table 5) and representing different metabolic pathways, to assess their ability to induce IL1FC and expression of NLRC4 in primary monocytes from four healthy donors (shown are the results of one representative experiment). Adenosine was used as a positive control. A significant induction of IL1FC is observed for adenosine and adenine, but not with other compounds (e). The highest dose of each compound (100 μM) was used to determine expression of NLRC4 and NLRP3 by qPCR on the same samples used for cytokine determination (e). […] As previously shown in mice, adenosine treatment up-regulates NLRP3 gene expression (P<0.01) (f). Expression of GAPDH was used to standardize the samples, and the results are expressed as a ratio relative to control. Error bars reflect experimental variability.
(§2) The dysfunction in nucleotide metabolism and in mitochondrial bioenergetics described above may explain the generation of circulating metabolites and chronic oxidative stress, respectively. To study whether the circulating metabolites found in higher levels in the sera from IMH compared to IML subjects up-regulate NLRC4 gene expression and/or cytokine production, four candidate compounds identified from our analysis were selected. They represent distinct metabolic pathways. These included adenine (purine metabolism), DL-4-hydroxy-3-methoxymandelic acid (vanillylmandelate) (phenylalanine and tyrosine metabolism), scyllo-inositol (inositol metabolism) and N4-acetylcytidine (N4A) (pyrimidine metabolism) (Table 5). Adenosine was included as a positive control for IL1FC production. Primary monocytes from four healthy donors were isolated from fresh […] blood and incubated with increasing concentrations of the indicated compounds for 6 hours. […] We also tested whether these stimulations lead to changes in the expression of NLRC4 and NLRP3 (used as a positive control for adenosine stimulation). […] More biochemical studies are necessary to address this.
(§3) Adenosine, adenine, DL-4-hydroxy-3-methoxymandelic acid, scyllo-inositol were all purchased form Sigma (Sigma-Aldrich, St. Louis, Mo.) and N4-acetylcytidine was purchased from Santa Cruz Biotechnology (Dallas, Tex.). Compounds were tested at the indicated concentrations on isolated monocytes from a healthy donor. […] Samples were then transferred to the Human Immune Monitoring Core at Stanford for quantification of cytokines, chemokines and growth factors using the 63-plex Luminex system, as described above. […]

[2] = system: NLRC4; experiment: NLRC4 expression by qPCR in primary monocytes; conditions: 100 μM, 6 hours, GAPDH-standardized, ratio relative to control
Description: as §1, §2, §3

[3] = system: differentiated THP-1 cells; experiment: Cytokine secretion (ELISA) from differentiated THP-1 cells; conditions: 6 hr; for production of IL-1β / production of IL-18 / production of TNF-α: without ATP pulse
Description: FIG. 4. N4-Acetylcytidine and Adenine induce the NLRC4 inflammasome. (a) Differentiated THP-1 cells were treated with ATP (5 mM, 30 min), or primed with LPS (1 μg/ml, 4 hr) and then pulsed with ATP; or treated with indicated concentrations (mM) of Adenine (Ad) or N4-Acetylcytidine (N4A) alone for 6 hr or (b) in combination, and then pulsed or not with ATP. Secretion of cytokines IL-1β, IL-18 and TNF-α were measured by ELISA from cell culture supernatants. (c) Differentiated THP-1 cells were treated with compounds as indicated (1 mM N4A; 300 μM Ad) for 6 hr or ATP 5 mM 30 min, cells were lysed and cell lysates were then immunoblotted with various antibodies to monitor expression of NLRs, Casp1, and prolL-1β. (d) Differentiated THP-1 cells were treated with compounds as before and cell lysates were submitted to immunoprecipitation with Biotinyl-YVAD-fmk peptide. Complexes were then recovered by using Streptavidin-sepharose beads and immunoblotted with anti-Caspase-1 p10 antibody. (e) Differentiated THP-1 cells were treated with compounds as before in the presence or not of Ac-YVAD-fmk or control DMSO, and IL-1β secretion was measured. (f) Differentiated WT or stable shTHP-1 cell lines were treated with compounds as before (1 mM N4A; 300 μM Ad) and IL-1β secretion was measured. To the right, western-blots showing protein expression of NLRC4 in stable shTHP-1 cell lines. (g) Bone marrow-derived macrophages from WT or KO mice as indicated were isolated and treated with combination of compounds (1 mM N4A; 300 μM Ad), and IL-1β secretion was measured. Data are expressed as concentration of cytokines (pg/ml) (mean±SD; n=3). * P<0.05, ** P<0.01.
In parallel experiments, differentiated THP-1 cells and a human monocytic cell Line were treated to address whether the metabolites N4A and adenine, alone or in combination, could induce inflammasome activation and cytokine secretion in vitro.
Adult male mice (12-18 week old) were divided into two groups: PBS or compound treated-mice (N4-Acetylcytidine+Adenine dissolved in PBS). Compound-treated mice were injected with N4-Acetylcytidine and Adenine (stock solution 20 mM each, 100 ul/25 g body weight, retro-orbital injection, once daily) or PBS. After 3 weeks of treatment, while they continued receiving daily injections of PBS or N4A+Adenine, mice from both groups were administered an infusion of human angiotensin II (AngII, #A9525, Sigma-Aldrich, St. Louis, Mo.) for another 2 weeks. Angll (140 ng/kg per min) was dissolved in 100 ul 20 mM (N4A+Adenine) or in 100 ul PBS and loaded into a small osmotic pump (Durect Corporation, Cupertino, Calif., USA). The osmotic pump was then implanted subcutaneously on the dorsal side around the neck of mice under anesthesia ([…]). Systolic blood pressure was measured every other day in conscious mice using tail-cuff plethysmography (Vistech System BP-2000, Apex, N.C., USA). Experiments with human THP-1 cells and primary blood platelets THP-1 monocytic cell lines were cultured in 6-well plates in RPMI media (supplemented with 10% Fetal Bovine Serum) and differentiated overnight with TPA (10 ng/ml). The day after, adherent cells were washed with fresh media and treated with agonists LPS ([…], 4 hrs) and ATP (5 mM, 30 min) or compounds Adenine/N4-Acetylcytidine at various concentrations.

[4] = system: primary platelets; experiment: Platelet activation, CD61/CD62P membrane expression by flow cytometry; conditions: platelets of two healthy donors, 6 hrs at 37° C., various concentrations, CD61 and CD62P+
Description: Primary platelets were isolated from the blood of two donors and incubated for 6 hr at 37° C. with thrombin, or ADP, or various concentrations of Adenine or N4-Acetylcytidine. Platelet activation was monitored by measuring membrane expression of CD61 and CD62P by flow cytometry. Data are representative of at least three independent experiments with similar results. […] Thus, it was sought to determine whether [MUT] and adenine were able to activate human platelets in vitro. To do so, platelets were isolated from the blood of two healthy donors and incubated for 6 hrs at 37° C. with various concentrations of adenine or [MUT]. Thrombin, and ADP were used as controls and platelet activation was monitored by measuring membrane expression of CD61 and CD62P+ cells by flow cytometry. […] Human primary platelets were prepared from whole blood using a venepuncture in EDTA tube after a 20 min centrifugation at 1000 rpm without acceleration and break. Then the supernatant was harvested and 1 μM PGE1 was added. […] Platelets were then stimulated with thrombin (at 0.5 U/ml), ADP, or with the indicated concentrations of [MUT] or adenine, and activation was monitored by flow cytometry using 25 immunostaining of membrane markers with anti-CD61 (marker of platelet population), and anti-CD62-P (marker of activation involved in aggregation).

[5] = system: primary monocytes; experiment: IL1FC (IL-1α, IL-1β) production in primary monocytes treated with metabolites; conditions: primary monocytes from four healthy donors, increasing concentrations, 6 hours
Description: as §1
The dysfunction in nucleotide metabolism and in mitochondrial bioenergetics described above may explain the generation of circulating metabolites and chronic oxidative stress, respectively. To study whether the circulating metabolites found in higher levels in the sera from IMH compared to IML subjects up-regulate NLRC4 gene expression and/or cytokine production, four candidate compounds identified from our analysis were selected. They represent distinct metabolic pathways. […]
as §3, with “Tex.).” for “Tex.). Compounds were tested at the indicated concentrations on isolated monocytes from a healthy donor.”

[6] = system: primary neutrophils; experiment: Primary neutrophil activation (RANKL, degranulation, IL-1β secretion); conditions: 24 hr, various concentrations
Description: (b) Primary neutrophils were isolated from blood of healthy donors and incubated for 24 hr with various concentrations of adenine or N4A alone or in combination, and RANK-L+ cells were determined within the CD66b+ population. (c) Primary neutrophils were treated with N4A (1 mM) and/or adenine (1 mM) and the % of degranulated population was measured for each donor. (d) Primary neutrophils were treated as before with compounds as indicated and IL-1β secretion was measured from cell culture supernatants for each donor. Data are expressed as concentration of cytokines (pg/ml), or as fold increase with respect to non-treated (NT) condition as indicated. * P<0.05, ** P<0.01
In addition, the frequencies of 22 different cell subsets in IMH and IML older adults (N=22) were estimated and in a separate analysis, such frequencies were compared between young and older adults (N=86). For these analyses Cibersort (Newman et al. Robust enumeration of cell subsets from tissue expression profiles. Nature Methods 12, 453-457, 2015) was used, which uses gene expression profiles to characterize cell subset composition in complex tissues, such as whole blood. Significant differences were found in the estimated frequencies of circulating mast cells, as well as in the CD4 T regulatory cell compartment between young and older adults (P<0.01). […]

[7] = then pulsed with ATP (5 mM, 30 min)

Row | Compound | expression of NLRP3 [1] | expression of NLRC4 [2] | secretion of IL-1β [3, 7] | secretion of IL-18 [3, 7] | production of IL-1β [3] | production of IL-18 [3] | production of TNF-α [3] | percentage of activated platelets [4] | IL-1α production [5] | IL-1β production [5] | RANKL+ cells within the CD66b population [6]
1 | COc1cc(C(O)C(=O)O)ccc1O (racemic) [DL-4-hydroxy-3-methoxymandelic acid] | No effect | No effect |  |  |  |  |  |  |  |  | 
2 | CC(=O)Nc1ccn([C@@H]2O[C@H](CO)[C@@H](O)[C@H]2O)c(=O)n1 [N4A, N4-acetylcytidine] | induced both NLRP3 and NLRC4 | induced both NLRP3 and NLRC4 | potently induced secretion | potently induced secretion | neither incubation with adenine nor with N4A alone had an effect | neither incubation with adenine nor with N4A alone had an effect | neither incubation with adenine nor with N4A alone had an effect |  |  |  | 
3 | Nc1ncnc2[nH]cnc12 [adenine] | No effect | No effect |  |  | neither incubation with adenine nor with N4A alone had an effect | neither incubation with adenine nor with N4A alone had an effect | neither incubation with adenine nor with N4A alone had an effect | robustly induced a dose-dependent increase | significant increase | significant increase | induced a potent increase
4 | Nc1ncnc2c1ncn2[C@@H]1O[C@H](CO)[C@@H](O)[C@H]1O [adenosine, reference compound] | increased expression of NLRP3 | no increase in NLRC4 was observed |  |  |  |  |  |  | significant increase | significant increase | 
5 | O[C@H]1[C@H](O)[C@@H](O)[C@H](O)[C@@H](O)[C@@H]1O [scyllo-inositol] | No effect | No effect |  |  |  |  |  |  |  |  | 
